Laboratory results as given in patent US20090143279A1 (priority 2007, published 2009).
Like-named read-outs stand apart in the source and are kept apart here.

Legend:
[1] = system: cellular dehydrogenase activity; conditions: for MTT (composite Z-score): normalized score vs mock-treated (DMSO) wells
reactive oxygen species = format: cell-based, mouse; conditions: for ROS (composite Z-score): normalized score vs mock-treated (DMSO) wells
mtOXPHOS transcripts = format: cell-based, mouse; conditions: Conc 20 μM; for mitoOX (composite Z-score): normalized score vs mock-treated (DMSO) wells
nuOXPHOS transcripts = format: cell-based, mouse; conditions: Conc 20 μM; for nucOX (composite Z-score): normalized score vs mock-treated (DMSO) wells
C2C12 myotubes = conditions: for Viability (composite Z-score): normalized score vs mock-treated (DMSO) wells
OXPHOS gene expression = format: cell-based, mouse; conditions: Conc 20 μM; for GE-HTS (composite Z-score): normalized score vs mock-treated (DMSO) wells
cytochrome c = format: cell-based, mouse; conditions: Conc 20 μM; for cyt c (composite Z-score): normalized score vs mock-treated (DMSO) wells
[2] = system: mitochondrial membrane potential; format: cell-based, mouse; conditions: for ΔΨm (composite Z-score): normalized score vs mock-treated (DMSO) wells
[3] = normalized composite Z-score vs mock-treated (DMSO) wells, Conc 20 μM
[4] = normalized composite Z-score vs mock-treated (DMSO) wells
[5] = composite Z-score vs DMSO, Conc 20 μM
[6] = Table 4, C2C12 myotubes, 48 h, composite Z-score
[7] = composite Z-score vs mock-treated (DMSO) wells, Conc 20 μM
[8] = composite Z-score vs mock-treated (DMSO) wells

Compound | MTT [1, 3] | ROS (reactive oxygen species; [3]) | mitoOX (mtOXPHOS transcripts; [4]) | nucOX (nuOXPHOS transcripts; [4]) | Viability (C2C12 myotubes; [3]) | GE-HTS (OXPHOS gene expression; [4]) | cyt c (cytochrome c; [4]) | ΔΨm [2, 3] | MTT (composite Z-score) ([1]; Conc 20 μM) | ROS (composite Z-score) (reactive oxygen species; Conc 20 μM) | mitoOX (composite Z-score) (mtOXPHOS transcripts) | nucOX (composite Z-score) (nuOXPHOS transcripts) | Viability (composite Z-score) (C2C12 myotubes; Conc 20 μM) | GE-HTS (composite Z-score) (OXPHOS gene expression) | cyt c (composite Z-score) (cytochrome c) | ΔΨm (composite Z-score) ([2]; Conc 20 μM) | further results
CC1(C)C(=O)C=C[C@]2(C)[C@H]3CC[C@@]4(C)[C@H](c5ccoc5)OC(=O)[C@H]5O[C@]54[C@]3(C)C=C[C@@H]12 [7-desacetoxy-6,7-dehydrogedunin] | −1.891 | −3.492 | −2.631 | −0.695 | −0.973 | −1.430 | 0.198 | −1.799 |  |  |  |  |  |  |  |  | 
COc1ccc(-c2coc3c(OC)c(O)ccc3c2=O)cc1 [7-hydroxy-8,4′-dimethoxyisoflavone] | −1.073 | 1.404 | −0.667 | −0.994 | −1.022 | −0.962 | 0.363 | −0.417 |  |  |  |  |  |  |  |  | 
COc1ccc2c(=O)ccoc2c1 [7-methoxychromone] |  |  |  |  |  |  |  |  |  |  |  |  |  |  |  |  | MTT [1, 5]: −0.963; ROS (reactive oxygen species; [5]): 0.919; mitoOX (mtOXPHOS transcripts; composite Z-score vs DMSO): −0.451; nucOX (nuOXPHOS transcripts; composite Z-score vs DMSO): −0.818; Viability (C2C12 myotubes; [5]): −0.999; GE-HTS (OXPHOS gene expression; composite Z-score vs DMSO): −0.759; cyt c (cytochrome c; composite Z-score vs DMSO): 0.511; ΔΨm [2, 5]: −0.875
COC(=O)C1(C)CCCC2(C)c3ccc(C(C)C)cc3C(=O)CC12 (stereo not shown) [7-oxocallitrisic acid, methyl ester] |  |  |  |  |  |  |  |  |  |  |  |  |  |  |  |  | MTT [1, 5]: 0.111; ROS (reactive oxygen species; [5]): 0.162; mitoOX (mtOXPHOS transcripts; composite Z-score vs DMSO): −1.555; nucOX (nuOXPHOS transcripts; composite Z-score vs DMSO): −0.457; Viability (C2C12 myotubes; [5]): 1.266; GE-HTS (OXPHOS gene expression; composite Z-score vs DMSO): −0.876; cyt c (cytochrome c; composite Z-score vs DMSO): −0.923; ΔΨm [2, 5]: 2.079
COc1ccccc1-c1cc(=O)c2cccc(OC)c2o1 [8,2′-dimethoxyflavone] |  |  |  |  |  |  |  |  | −0.556 | 1.219 | −0.811 | −0.414 | −1.096 | −0.593 | 0.864 | 1.282 | 
CC(=O)C=CC1C(C)(O)CCC2C(C)(C)CCCC21C (stereo not shown) [8-hydroxy-15,16-bisnor-11-labden-13-one] | −0.248 | 0.504 | −1.430 | −0.078 | −1.702 | −0.554 | 0.550 | 0.798 |  |  |  |  |  |  |  |  | 
COc1ccc([C@H]2Oc3c(I)c(OC)cc(OC)c3C[C@@H]2O)cc1OC [8-iodocatechin tetramethyl ether, reference compound] |  |  |  |  |  |  |  |  |  |  |  |  |  |  |  |  | MTT [1, 6]: −1.359; MTT [1, 7]: −1.359; ROS (reactive oxygen species; [6]): −0.448; ROS (reactive oxygen species; [7]): −0.448; mitoOX (mtOXPHOS transcripts; [8]): −1.411; nucOX (nuOXPHOS transcripts; [8]): −0.985; Viability (C2C12 myotubes; [6]): 0.377; Viability (C2C12 myotubes; [7]): 0.377; GE-HTS (OXPHOS gene expression; [8]): −1.194; cyt c (cytochrome c; [8]): 0.237; ΔΨm ([2]; Table 4, C2C12 myotubes, 48 h, JC-1, composite Z-score): 0.146; ΔΨm [2, 7]: 0.146
COC(=O)C[C@H]1C(C)(C)C2(O)OC34CC2C(=O)[C@]1(C)C3CC[C@]1(C)C4=CC(=O)O[C@H]1c1ccoc1 (stereo partly drawn) [8beta-hydroxycarapin, 3,8-hemiacetal] |  |  |  |  |  |  |  |  | 0.204 | 1.075 | 0.789 | 0.472 | 0.561 | 0.600 | 0.436 | −0.251 | 
CC[C@@]1(O)C(=O)OCc2c1cc1n(c2=O)Cc2cc3cc(O)ccc3nc2-1 [10-hydroxycamtothecin] |  |  |  |  |  |  |  |  | −2.588 | −1.681 | −0.782 | −1.180 | −1.466 | −1.137 | −2.397 | 0.725 | 
CC(=O)O[C@H]1CC[C@]2(C)[C@H]3C(=O)C=C4[C@@H]5[C@@H](C)[C@H](C)CC[C@]5(C(=O)O)CC[C@@]4(C)[C@]3(C)CC[C@H]2C1(C)C [11-oxoursolic acid acetate] | −1.214 | 0.280 | −0.027 | −0.304 | 1.094 | −0.240 | −1.393 | −0.524 |  |  |  |  |  |  |  |  | 
CC(C)c1ccc2c(c1)CCC1[C@](C)(CN)CCC[C@]21C.O=S(=O)(O)O (stereo partly shown) [18-aminoabieta-8,11,13-triene sulfate] |  |  |  |  |  |  |  |  | −0.762 | 2.176 | −0.462 | −0.771 | −0.143 | −0.727 | 0.507 | −0.519 | 
CC(C)c1c(O)ccc2c1CC[C@H]1[C@@](C)(CO)CCC[C@]21C [19-hydroxytotarol] |  |  |  |  |  |  |  |  |  |  |  |  |  |  |  |  | MTT [1, 7]: 1.198; ROS (reactive oxygen species; [7]): 1.558; mitoOX (mtOXPHOS transcripts; [8]): 0.086; nucOX (nuOXPHOS transcripts; [8]): −0.128; Viability (C2C12 myotubes; [7]): −0.207; GE-HTS (OXPHOS gene expression; [8]): −0.041; cyt c (cytochrome c; [8]): 1.305; ΔΨm [2, 7]: 0.453
